The text below walks through data of US20060111305A1, “Metabolites of certain [1,4]diazepino[6,7,1-ij]quinoline derivatives and methods of preparation and use thereof” (Wyeth, priority 2004, published 2006).

A short description of series [1]: Dog fecal excretion and metabolite profiles after oral capsule of [14C]DCDQ. It counts as in vivo, beagle dogs. As to the method: Blood samples were collected from the jugular vein at 2, 4, 8, 24 and 48 hour after dose administration into tubes containing potassium EDTA as the anticoagulant and then placed on ice. Aliquots of 50 μL were removed for combustion and determination of radioactivity content. Plasma was immediately obtained from the remaining blood by centrifugation at 4° C. Urine samples were collected into tubes on dry ice at intervals of 0-8, 8-24 and 24-48 hour post-dose. Fecal samples were collected at intervals of 0-8, 8-24 and 24-48 hour post-dose at room temperature, and were homogenized. The biological specimens were stored at approximately −70° C. until analysis.
Feces were weighed and homogenized in water at a volume-to-weight ratio of about 5:1. Aliquots of blood (200 μL) and fecal homogenates (0.25-0.53 gram) were placed on Combusto-cones with Combusto-pads and combusted. A model 307 Tri-Carb sample oxidizer, equipped with an Oximate-80 robotic automatic sampler (Perkin Elmer), was used for combustion of blood and fecal samples. The liberated ^14CO2 was trapped with Carbo-Sorb E carbon dioxide absorber, mixed with PermaFluor® E+ liquid scintillation cocktail, and counted on a Tri-Carb Model 3100 TR/LL liquid scintillation counter (Perkin Elmer). The efficiency of combustion was 98.9%.
Fecal homogenates were analyzed for metabolite profiles. Aliquots of 1 gram of fecal homogenate were mixed with 2 mL methanol, placed on ice for about 10 minutes and centrifuged. The supernatant was transferred to a clean tube. The residue was extracted three times with 2 mL of a water:methanol (3:7) mixture. The supernatants from each sample were combined, evaporated to about 1 mL, and centrifuged. Extraction efficiency was determined by analyzing aliquots of 10 μL of the supernatant for radioactivity. An aliquot (50-200 μL) of the supernatant was analyzed by HPLC with radioactivity flow detection for metabolite profiles. Samples were also analyzed by LC/MS to characterize the radioactive peaks.
A Waters model 2690 HPLC system (Waters Corp., Milford, Mass.) with a built-in autosampler was used for analysis. Separations were accomplished on a Phenomenex Luna C18(2) column (150×2.0 mm, 5 μm) (Phenomenex, Torrance, Calif.). The sample chamber of the autosampler was maintained at 4° C., while the column was at ambient temperature of about 20° C. A variable wavelength UV detector set to monitor 250 nm and a Flo-One β Model A525 radioactivity detector were used for data acquisition. The HPLC mobile phase consisted of 10 mM ammonium acetate, pH 4.5 (A) and acetonitrile (B), and was delivered at 0.2 mL/min. Chromatographic condition A was used for dose analysis, while condition B was used for analysis of urine and plasma, brain and fecal extracts.

Series [2] in a line: Metabolites of DCDQ generated by liver microsomes and hepatocytes, LC/MS characterization (Table 6). It counts as in vitro ADME. Particulars: MM mouse, RM rat, DM dog, HM human liver microsomes; HH human hepatocytes. From the text:
An Agilent Model 1100 HPLC system (Agilent Technologies, Palo Alto, Calif.) including an autosampler and diode array UV detector was used for LC/MS analysis. The UV detector was set to monitor 200 to 400 nm. For selected LC/MS analysis, radiochromatograms were acquired using a β-Ram model 3 radioactivity flow detector (IN/US Systems Inc., Tampa, Fla.) equipped with a solid scintillant flow cell. Separations were accomplished on a Phenomenex Luna C18(2) column (2×150 mm, 5 μm) under the same conditions as described above.
The mass spectrometer used for metabolite characterization was a Micromass Q-TOF-2 quadrupole time-of-flight hybrid mass spectrometer ([…].). The mass spectrometer was equipped with an electrospray ionization (ESI) interface and operated in the positive ionization mode. Collision energy settings of 5 and 30 eV were used for full MS and MS/MS scans, respectively. Settings for the mass spectrometer are listed below.
Mass spectra were obtained by LC/MS and LC/MS/MS analysis for DCDQ and its metabolites.
On the technique in general: Microsomes from liver hold many membrane-bound enzymes, among them those of drug oxidation.

Series [3] in a line: Metabolite profiles of DCDQ in human plasma and urine by LC/MS (Table 33). It counts as in vivo, healthy human subjects. Particulars: human plasma and urine, healthy subjects receiving DCDQ. The procedure:
Drug administration and specimen collection were performed in a randomized, double-blinded, placebo-controlled, ascending single dose study of the safety, tolerability, pharmacokinetics, and pharmacodynamics of DCDQ administered orally to healthy subjects and subjects with schizophrenia and schizoaffective disorder. The specimens were stored at approximately −70° C. until analysis for metabolite profiles and for ratios of carbamoyl glucuronide (M6) to DCDQ.
Two subjects with medium and high exposure to DCDQ in the 25 mg multiple ascending dose study were also analyzed by LC/MS for metabolite profiles. The 8 hr plasma samples collected on day 1 and day 14 from subjects 9 and 41 were processed and analyzed as described below. No internal standard was added to the samples analyzed for metabolite profiles.
LC/MS System 1 was used for analysis of plasma and urine samples for metabolite characterization. The HPLC equipment used with this LC/MS System consisted of an Agilent Model 1100 HPLC system (Agilent Technologies, Palo Alto, Calif.) including an autosampler, binary pump and diode array UV detector. The UV detector was set to monitor 210 to 350 nm. The HPLC mobile phase consisted of 10 mM ammonium acetate, pH 4.5 (A) and methanol (B), and was delivered at 0.2 mL/min. The linear mobile phase gradient (HPLC Gradient 1) is shown below. During LC/MS sample analysis, up to 6 min of the initial flow was diverted away from the mass spectrometer prior to evaluation of metabolites.
The mass spectrometer used for metabolite characterization with LC/MS System 1 was a Finnigan LCQ-Deca ion trap mass spectrometer (Thermo Electron, San Jose, Calif.). This mass spectrometer was equipped with an electrospray ionization (ESI) interface and operated in the positive ionization mode. Settings for the LCQ mass spectrometer are listed below.
LC/MS System 2 was used to provide additional MS/MS data for characterization of DCDQ metabolites in urine. The HPLC equipment used with LC/MS System 2 consisted of a Waters model 2695 HPLC system (Waters Corp., Milford, Mass.). It was equipped with a built-in autosampler and a model 996 diode array UV detector. The UV detector was set to monitor 210-400 nm. The HPLC column, mobile phases, flow rate, diversion of flow away from the mass spectrometer and gradient were as described above for LC/MS System 1. The column temperature was 25° C.
The mass spectrometer used for metabolite characterization with LC/MS System 2 was a Micromass Quattro Micro triple quadrupole mass spectrometer (Waters Corp.). This mass spectrometer was equipped with an electrospray interface and operated in the positive ionization mode. Settings for this mass spectrometer are listed below.

The test system of series [4] is cryopreserved human hepatocytes. Nature of the series: Incubation of [14C]DCDQ with cryopreserved human hepatocytes. The series is classed as in vitro ADME. The following applies: 10 or 50 μM DCDQ, 4 hours. As to the method:
Vials containing cryopreserved human hepatocytes were thawed in a 37° C. water bath with gentle shaking until the ice was almost melted. The vials were removed from the water bath and gentle shaking continued at room temperature for 30-60 seconds until completely thawed. The hepatocyte suspensions from each vial were immediately transferred to pre-cooled 50 mL beakers on ice. To each beaker, 12 mL of ice-cold hepatocyte suspension media was added dropwise over one minute, with occasional, gentle shaking by hand to prevent the cells from settling. The cell suspensions were transferred to a 15 mL tube and centrifuged at 100 g force for 3 min at 4° C. (Model T21 super centrifuge, Sorvall). The supernatant was discarded and the pellets were re-suspended in 4 mL of ice-cold hepatocyte culture media. The cell suspensions contained approximately 3.1×10^6 viable hepatocytes/mL. The average viability was 76.0% as determined using Trypan Blue exclusion and a hemacytometer.
The cell suspensions were distributed into 12-well plates at 1.0 mL per well. Incubations were performed using pooled hepatocytes from two donors. [^14C]DCDQ in water was added to the hepatocyte suspension at a final concentration of 10 or 50 μM. Incubations were carried out at 37° C. for 4 hours in an incubator supplied with 5% CO2. At the end of the incubation, the reaction was stopped by the addition of 200 μL cold methanol to each well. The content of each well was transferred to a 15 mL centrifuge tube and sonicated for 30 seconds. After vortex mixing with 6 mL methanol and then centrifugation, the supernatant was transferred to a clean tube and evaporated to about 0.5 mL in a TurboVap evaporator. The residue was analyzed by HPLC and LC/MS.
A Waters model 2690 HPLC system (Waters Corp., Milford, Mass.) with a built-in autosampler was used for analysis. […] A variable wavelength UV detector set to monitor 250 nm and Flo-One β Model A525 radioactivity flow detector (Perkin Elmer) with a 250 μL LQTR flow cell were used for data acquisition. […]

As to `O=C1NCCN2C[C@@H]3CCC[C@@H]3c3cccc1c32` [Metabolite M18, keto DCDQ], in series [1], the “% of total radioactivity in fecal extracts” value is “up to 16.4%” and the “metabolite detected in feces” value was “detected”.

As to `C1=NCCN2C[C@@H]3CCC[C@@H]3c3cccc1c32` [Metabolite P3, DCDQ imine], the Source result in series [2] was “MM, RM, DM, HM, HH”. Also, the “Matrix (in which DCDQ / metabolite was characterized by LC/MS)” value in series [3] was “P, U”. Also, in series [4], the “metabolite detected in human hepatocyte incubations” value is given as “observed”.
